Experimental data published in US7259239B2, “Lipopolysaccharide α-2,3 sialyltransferase of campylobacter jejuni and its uses” (priority 1998, dated 2007).

How the values were obtained:
[1] = biological target: T1, Lst protein from N. meningitidis (NST-33, MBP protein fusion) (Neisseria meningitidis serogroup B, UniProt P72097); type: biochemical; details: p-NP-glycoside acceptor at 2.0 mM; for Relative Activity (NST-33): acceptor with lowest activity given the value 1
T1 construct: made in house
Procedure: (§1) For donor kinetics the amount of conversion of CMP-Neu5Ac was calculated from the amount of product formed compared to an internal standard of 10 μM p-NP-glucose added after the reaction. This peak was well resolved from the acceptor and product peaks. The reactions with p-NP-glycosides were stopped by addition of an equal volume of 2% SDS, 20 mM EDTA and heated to 75° C. for 3 minutes and then diluted 1:1 (or maximally 1:10 for 10 mM concentrations) with water. The samples were then analyzed by CE using a diode array detector scanning between 260 and 300 nm, with the peaks at detected at 290 nm. The peaks from the electropherograms were analyzed using manual peak integration with the P/ACE Station™ software. For rapid detection of enzyme activity, samples from the transferase reaction mixtures were examined by thin layer chromatography on silica-60 TLC plates (E. Merck) as described in Gilbert et al. (1996) supra.
(§2) The acceptor specificity of the C. jejuni α-2,3-sialyltransferase was examined with a panel of p-NP-glycosides having both β1→4 and β1→3 linkages. The kinetic data for all of the acceptors was collected using the MBP-fusion protein of the full length sialyltransferase. The data for the acceptor specificity were collected first by assaying the enzyme at an acceptor concentration of 2.0 mM. The acceptor with the lowest activity was given the value of 1 for the comparison of activity. These reaction conditions were used in a comparison (Table 3) of the C. jejuni enzyme with the Lst protein from N. meningitidis (Gilbert et al. (1996) J. Biol. Chem. 271: 28271-28276). The N. meningitidis Lst protein was also a MBP protein fusion which was soluble and purified by affinity chromatography.

[2] = biological target: C. jejuni α-2,3-sialyltransferase (CST-06, MBP-fusion protein of the full length sialyltransferase) (Campylobacter jejuni, UniProt Q9RGF1); test: Acceptor specificity and kinetics on p-nitrophenyl-glycosides with malE-cst (CST-06); type: biochemical; details: p-NP-glycoside acceptor at 2.0 mM; for Relative Activity (CST-06): acceptor with lowest activity given the value 1
Procedure: (§3) Kinetic analysis of acceptors was performed at 37° C. with p-NP-glycosides at concentrations of 0.1 to 10 mM, with CMP-Neu5Ac at 1 mM. Kinetic analysis of the donor CMP-Neu5Ac was performed at a concentration of 20 μM to 1000 μM with p-NP-lactose at 5 mM. Care was taken to ensure that the level of acceptor conversion was between about 5-10% for acceptor kinetic assays.
as §1, §2

[3] = tested on: CC(=O)N[C@H]1[C@H](Oc2ccc([N+](=O)[O-])cc2)O[C@H](CO)[C@@H](O[C@@H]2O[C@H](CO)[C@H](O)[C@H](O)[C@H]2O)[C@@H]1O; test: as above; type: biochemical, Campylobacter jejuni; details: other: 37° C., p-NP-glycosides 0.1 to 10 mM, CMP-Neu5Ac 1 mM
Procedure: as §3, §1, §2

[4] = tested on: CC(=O)N[C@H]1[C@@H](Oc2ccc([N+](=O)[O-])cc2)O[C@H](CO)[C@H](O)[C@@H]1O[C@@H]1O[C@H](CO)[C@H](O)[C@H](O)[C@H]1O; test: as above; type: biochemical, Campylobacter jejuni; details: other: 37° C., p-NP-glycosides 0.1 to 10 mM, CMP-Neu5Ac 1 mM
Procedure: as §3, §1, §2

[5] = tested on: [H][C@@]1(O[C@H]2[C@H](O)[C@@H](O)[C@H](Oc3ccc([N+](=O)[O-])cc3)O[C@@H]2CO)O[C@H](CO)[C@H](O)[C@H](O)[C@H]1O; test: as above; type: biochemical, Campylobacter jejuni; details: other: 37° C., p-NP-glycosides 0.1 to 10 mM, CMP-Neu5Ac 1 mM
Procedure: as §3, §1, §2

Chain of C. jejuni α-2,3-sialyltransferase (CST-06, MBP-fusion protein of the full length sialyltransferase) (Q9RGF1 entry or part of it): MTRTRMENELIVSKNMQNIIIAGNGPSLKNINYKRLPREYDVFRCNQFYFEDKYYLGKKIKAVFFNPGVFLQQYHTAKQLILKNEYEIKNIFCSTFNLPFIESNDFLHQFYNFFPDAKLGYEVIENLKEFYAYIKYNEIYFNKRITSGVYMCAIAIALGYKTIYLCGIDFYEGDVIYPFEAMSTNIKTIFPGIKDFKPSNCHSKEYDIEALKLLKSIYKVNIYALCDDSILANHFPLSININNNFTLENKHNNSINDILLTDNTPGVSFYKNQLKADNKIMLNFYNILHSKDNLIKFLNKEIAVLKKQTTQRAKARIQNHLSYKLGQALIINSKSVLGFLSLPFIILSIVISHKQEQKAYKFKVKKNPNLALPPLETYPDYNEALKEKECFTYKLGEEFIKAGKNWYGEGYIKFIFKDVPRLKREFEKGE
T1 sequence (P72097 whole entry, the tested form may be a part): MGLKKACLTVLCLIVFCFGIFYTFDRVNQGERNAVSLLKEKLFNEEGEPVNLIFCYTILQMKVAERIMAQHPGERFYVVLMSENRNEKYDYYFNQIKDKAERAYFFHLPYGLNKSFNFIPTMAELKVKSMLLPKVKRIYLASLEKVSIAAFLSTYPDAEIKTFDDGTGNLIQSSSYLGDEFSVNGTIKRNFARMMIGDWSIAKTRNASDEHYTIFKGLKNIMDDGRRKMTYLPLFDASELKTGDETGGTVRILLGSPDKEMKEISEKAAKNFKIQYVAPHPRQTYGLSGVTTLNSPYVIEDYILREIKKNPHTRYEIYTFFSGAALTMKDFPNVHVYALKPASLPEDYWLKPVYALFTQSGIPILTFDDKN

Molecule	Relative Activity (NST-33) [1]	Relative Activity (CST-06) [2]	Enzyme activity mU/mg (NST-33) [1]	Enzyme activity mU/mg (CST-06) [2]	Km [3]	Km [4]	Km [5]
O=[N+]([O-])c1ccc(OC2OC(CO)C(OC3OC(CO)C(OC4OC(CO)C(O)C(O)C4O)C(O)C3O)C(O)C2O)cc1 (stereo not drawn) [Gal-α-1,4-Gal-β-Glc]	5.6	0					
O=[N+]([O-])c1ccc(O[C@@H]2O[C@H](CO)[C@@H](O[C@@H]3O[C@H](CO)[C@H](O)[C@H](O)[C@H]3O)[C@H](O)[C@H]2O)cc1 [Gal-β-1,4-Glc]	7.8	4.9	mU/mg = 30	mU/mg = 420			
O=[N+]([O-])c1ccc(O[C@@H]2O[C@H](CO)[C@H](O)[C@H](O)[C@H]2O)cc1 [Gal-β]	1.2	1					
C. jejuni α-2,3-sialyltransferase (CST-06, MBP-fusion protein of the full length sialyltransferase) (Campylobacter jejuni)					0.8 mM ± 0.2 mM	2.7 mM ± 0.1 mM	1.3 mM ± 0.12 mM
